ChEMBL document CHEMBL6087404, “Naphthoindole-2-carboxamides as a lipophilic chemotype of hetarene-anthraquinones potent against P-gp resistant tumor cells” (Eur J Med Chem, 2025)
Calls of active or inactive are those of the source. The rule behind the calls is not given here.

Columns and labels:
K562/4 [1] = assay: Induction of apoptosis in human K562/4 cells assessed as late apoptotic cells at 1 uM incubated for 48 hrs by Annexin V-FITC/PI staining based flow cytometry (reference value: 2.5 %); assay type: functional
K562 [2] = assay: Antiproliferative activity against human K562 cells incubated for 72 hrs by MTT assay; assay type: functional, cell-based; settings: K562, 72 h
[3] = molecular target: T1, DNA topoisomerase 1 (Homo sapiens) (UniProt P11387); assay: Inhibition of Top1 (unknown origin)-mediated unwinding of supercoiled DNA at 5 uM incubated for 30 mins by electrophoretic analysis
T1 sequence (whole entry): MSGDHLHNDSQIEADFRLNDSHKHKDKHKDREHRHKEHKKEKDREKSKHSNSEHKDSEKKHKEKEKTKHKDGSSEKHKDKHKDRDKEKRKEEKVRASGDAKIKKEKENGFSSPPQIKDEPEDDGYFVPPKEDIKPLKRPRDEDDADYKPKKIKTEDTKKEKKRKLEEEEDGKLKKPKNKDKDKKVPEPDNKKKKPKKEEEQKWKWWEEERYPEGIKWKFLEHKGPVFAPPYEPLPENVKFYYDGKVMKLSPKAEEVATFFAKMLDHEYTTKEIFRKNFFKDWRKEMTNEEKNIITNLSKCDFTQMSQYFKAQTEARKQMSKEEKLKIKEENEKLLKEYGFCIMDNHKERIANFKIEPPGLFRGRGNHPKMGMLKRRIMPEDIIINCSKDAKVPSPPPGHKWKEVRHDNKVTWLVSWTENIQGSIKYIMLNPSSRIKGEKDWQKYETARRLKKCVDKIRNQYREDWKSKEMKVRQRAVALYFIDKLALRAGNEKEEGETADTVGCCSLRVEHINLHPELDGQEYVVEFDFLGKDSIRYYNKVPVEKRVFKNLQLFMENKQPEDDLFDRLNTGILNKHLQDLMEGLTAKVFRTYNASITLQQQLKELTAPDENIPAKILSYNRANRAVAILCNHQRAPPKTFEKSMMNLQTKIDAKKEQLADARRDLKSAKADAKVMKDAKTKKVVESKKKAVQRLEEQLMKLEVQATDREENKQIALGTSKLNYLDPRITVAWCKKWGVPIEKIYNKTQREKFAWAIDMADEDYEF

A549 = assay: Antiproliferative activity against human A549 cells incubated for 72 hrs by MTT assay; assay type: functional, cell-based; settings: A549, 72 h
K562/4 [4] = assay: Antiproliferative activity against human K562/4 cells incubated for 72 hrs by MTT assay; assay type: functional, cell-based; settings: K562/4, 72 h
K562 [5] = assay: Effect on cell cycle distribution in human K562 cells assessed as cells with fragmented DNA at sub-G1 phase at 1 uM incubated for 72 hrs by PI staining based flow cytometry (reference value: 3 %); assay type: functional
K562 [6] = assay: Induction of apoptosis in human K562 cells assessed as necrotic cells at 1 uM incubated for 24 hrs by Annexin V-FITC/PI staining based flow cytometry (reference value: 10.8 %); assay type: functional
[7] = Drug uptake in human HCT-116 cells at 3 uM incubated for 10 mins by confocal microscopy; assay type: ADME, cell-based; settings: hct-116, 10 min
K562/4 [8] = assay: Induction of apoptosis in human K562/4 cells assessed as viable cells at 1 uM incubated for 48 hrs by Annexin V-FITC/PI staining based flow cytometry (reference value: 10.8 %); assay type: functional; settings: read-out: Activity
[9] = Selectivity index, ratio of IC50 for human hFB-hTERT6 cells to IC50 for human K562 cells; assay type: toxicity; settings: hFB-hTERT6 cells and K562 cells, read-out: Ratio IC50
[10] = Drug uptake in human K562/4 cells assessed as fold increase at 2 uM incubated for 3 to 120 hrs by flow cytometry relative to LCTA-2640; assay type: ADME, cell-based; settings: k562/4, 2 µM, time 3-120 hrs
K562 [11] = assay: Induction of apoptosis in human K562 cells assessed as viable cells at 1 uM incubated for 48 hrs by Annexin V-FITC/PI staining based flow cytometry (reference value: 85.9 %); assay type: functional; settings: read-out: Activity
[12] = Resistance index, ratio of IC50 for human K562/4 cells to IC50 for human K562 cells; assay type: functional
[13] = Drug uptake in P-gp+ human K562i/S9 cells at 2 uM incubated for 3 to 120 hrs by flow cytometry; assay type: ADME, cell-based; settings: k562i/s9, 2 µM, time 3-120 hrs
K562 [14] = assay: Effect on cell cycle distribution in human K562 cells assessed as cells with fragmented DNA at sub-G1 phase at 0.75 uM incubated for 72 hrs by PI staining based flow cytometry (reference value: 3 %); assay type: functional

In the case of CS(=O)(=O)O.N[C@H]1CCN(C(=O)c2cc3c(O)c4c(c(O)c3[nH]2)C(=O)c2ccccc2C4=O)C1, the Activity (K562/4 [1]) is reported as 17.5%, the IC50 (K562 [2]) is reported as 500 nM and the inhibition [3] is reported as “Active”. It also gave an IC50 (A549) of 7700 nM, an IC50 (K562/4 [4]) of 1200 nM and an Activity (K562 [5]) of 97%. The Activity (K562 [6]) was 46.2%, the Drug uptake [7] was “Active” and the viability at 1 µM (K562/4 [8]) was 79%. For the same molecule, the selectivity ratio [9] was 8.4, the “fold change (FC)” value [10] was “<= 2” and the viability at 1 µM (K562 [11]) was 11.9%. For the same molecule, the “Ratio IC50” value [12] was 2.4, the Drug uptake [13] was “Active” and the Activity (K562 [14]) was 30%.
